The test has as its target T1, caspase-3 (Homo sapiens, UniProt P42574).
T1 construct: host or cells: HFDPC-c cells (follicle dermal papilla cells)
T1 sequence (P42574 29-175 limits assumed): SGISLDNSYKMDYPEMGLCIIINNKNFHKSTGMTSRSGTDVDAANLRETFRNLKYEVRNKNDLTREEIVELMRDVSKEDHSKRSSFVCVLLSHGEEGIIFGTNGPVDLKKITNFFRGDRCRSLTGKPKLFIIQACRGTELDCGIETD
T1 sequence (P42574 176-277 limits assumed): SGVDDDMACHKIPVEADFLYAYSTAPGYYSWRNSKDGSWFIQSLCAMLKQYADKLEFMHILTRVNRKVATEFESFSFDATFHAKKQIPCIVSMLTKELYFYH
The experiment in a line: Caspase-3 activity (ApoTarget Caspase-3/CPP32 colorimetric test, DEVD-pNA) in HFDPC-c cells with Staurosporine-induced apoptosis. It counts as cell-based. To be noted: for % Inhibition of caspase activity / % Caspase-3 activity: Staurosporine 1 μM, 24 h, number in label = concentration [μM] per Table A; for % Inhibition of caspase activity: ST alone = 0%; for % Caspase-3 activity: related to 100% activity for 1 μM Staurosporine. On the procedure:
The activity of caspase-3 has been assessed by using the colorimetric test ApoTarget™Caspase-3/CPP32 with DEVD-pNA as the substrate (BioSource International, Camarillo, Calif.). DEVD-pNA consists of a chromophore group (p-nitroanilide (p-NA) and a synthetic tetrapeptide (DEVD-Asp-Glu-Val-Asp) that represents the consensus sequence for the proteolytic cut catalyzed by caspase-3. The test was carried out by following the specifications indicated by the manufacturer in detail, using an equal amount of total protein (200 μg) for every sample.
Every sample was tested in duplicate. The activity was assessed by measuring the absorbance at 405 nm (in the graphics, ABS 405 nm) with an automatic spectrometer for 96-well plates (MPT Reader DV990 BVG) that carries out a double reading for every well.
Cellular lysis is a technique applied to extract all of the proteins in the cultured cells to be analyzed. Various lysis protocols exist: the one used in the experimental tests described here consists of the use of a highly denaturing buffer (lysis buffer, provided within the kit for the test of the caspase-3 activity). After incubation with the various active ingredients, the lysis buffer is placed onto the cell plates, a scraper is then used directly on the layer of cells to help collect the largest quantity possible. The protein extraction is then improved with incubation on ice (4° C.) for 10 minutes. The cellular debris are precipitated with centrifugation at 10,000×g for 1 minute. The lysates are retrieved and frozen at −80° C.
The activity of caspase-3 was assessed by using the colorimetric assay ApoTarget™Caspase-3/CPP32, and the concentration of the protein was assessed by using the Lowry-Ciocalteau method and a BSA standard as described above.
The incubation was also maintained for 24 hours in this case.
At the end of the incubation the plates in which the cells were cultivated were laid out on a bed of ice, washed once in cold PBS and incubated in the lysis buffer. After the lysis, the protein assay and the caspase-3 activity test was carried out.

Structures are written as SMILES.

Turning to `CC1=C(/C=C/C(C)=C/C=C/C(C)=C/C=C/C=C(C)/C=C/C=C(C)/C=C/C2=C(C)C[C@@H](O)CC2(C)C)C(C)(C)C[C@H](O)C1` [Example Z0.4, Zeaxanthin], the “% Inhibition of caspase activity” value is listed as 29.00% and the “% Caspase-3 activity” value stood at 71.00%. For the same compound, under “listed as Z4”, the “% Inhibition of caspase activity” value came to 13.20% and the “% Caspase-3 activity” value was 86.80%.

As to `C[C@@H]1O[C@@H](OC[C@H]2O[C@@H](Oc3c(-c4ccc(O)c(O)c4)oc4cc(O)cc(O)c4c3=O)[C@H](O)[C@@H](O)[C@@H]2O)[C@H](O)[C@H](O)[C@H]1O` [Example R2, Rutin], the “% Inhibition of caspase activity” value amounted to 32.10% and the “% Caspase-3 activity” value is recorded as 67.90%. Also, where the note is “listed as R20”, the “% Inhibition of caspase activity” value came out at 46.27% and the “% Caspase-3 activity” value is listed as 53.73%.

As for `Cl.Cl.Cl.NCCCCNCCCN` [Example S0.1, Spermidine trihydrochloride], the “% Inhibition of caspase activity” value was 21.64% and the “% Caspase-3 activity” value is 78.36%.

For the compound `CN[C@@H]1C[C@H]2O[C@@](C)([C@@H]1OC)n1c3ccccc3c3c4c(c5c6ccccc6n2c5c31)C(=O)NC4` [Staurosporine, reference compound], under “1 μM, 24-hour incubation, FIG. 1”, the “induction of apoptosis (caspase-3 activity)” value is on record as “increase in caspase-3 activity”.
